Columns and labels:
[1] = biological target: T1, Dolichyl-phosphate-mannose--protein mannosyltransferase 1 (Candida albicans (strain SC5314 / ATCC MYA-2876) (Yeast), UniProt O74189); test: In vitro inhibition of Candida albicans protein mannosyl transferase 1
T1 sequence (O74189 whole entry): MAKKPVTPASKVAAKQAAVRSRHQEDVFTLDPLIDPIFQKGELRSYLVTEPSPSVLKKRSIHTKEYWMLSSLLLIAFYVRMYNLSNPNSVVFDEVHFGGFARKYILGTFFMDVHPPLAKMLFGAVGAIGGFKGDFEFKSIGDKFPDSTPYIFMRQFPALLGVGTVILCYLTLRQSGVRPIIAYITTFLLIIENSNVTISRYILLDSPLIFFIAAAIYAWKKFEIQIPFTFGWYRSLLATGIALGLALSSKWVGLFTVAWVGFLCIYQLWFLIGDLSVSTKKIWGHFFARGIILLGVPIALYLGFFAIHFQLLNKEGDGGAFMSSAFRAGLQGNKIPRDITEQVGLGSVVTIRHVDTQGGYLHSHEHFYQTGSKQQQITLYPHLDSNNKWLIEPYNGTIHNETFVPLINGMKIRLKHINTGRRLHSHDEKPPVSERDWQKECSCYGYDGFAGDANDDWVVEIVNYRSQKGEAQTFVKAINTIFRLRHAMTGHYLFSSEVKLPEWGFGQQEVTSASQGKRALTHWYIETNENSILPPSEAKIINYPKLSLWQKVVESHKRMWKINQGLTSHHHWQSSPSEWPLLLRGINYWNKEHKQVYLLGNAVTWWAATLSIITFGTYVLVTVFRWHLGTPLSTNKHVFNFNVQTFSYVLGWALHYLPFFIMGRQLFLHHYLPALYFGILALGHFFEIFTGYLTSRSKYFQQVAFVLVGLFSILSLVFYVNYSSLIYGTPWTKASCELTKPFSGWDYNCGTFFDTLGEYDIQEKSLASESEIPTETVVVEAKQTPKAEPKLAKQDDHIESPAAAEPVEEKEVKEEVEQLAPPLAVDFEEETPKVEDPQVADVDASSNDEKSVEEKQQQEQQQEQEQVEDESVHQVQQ

Candida albicans = test: In vitro inhibition of Candida albicans G418-sensitive proliferation; type: functional, organism-based

For `O=C(O)CN1C(=O)/C(=C/c2ccc(OCc3ccccc3)c(OCc3ccccc3)c2)SC1=S`, the IC50 [1] was 2300 nM and the IC50 (Candida albicans) was 3000 nM.
With `O=C(O)CN1C(=O)/C(=C/c2ccc(OCc3ccccc3)c(OCc3cccc(Cl)c3)c2)SC1=S` the IC50 [1] was 4000 nM and the IC50 (Candida albicans) was 4000 nM.
`O=C(O)CN1C(=O)/C(=C/c2ccc(OCCCc3ccccc3)c(OCc3ccccc3)c2)SC1=S` showed an IC50 [1] of 1400 nM and an IC50 (Candida albicans) of 2400 nM.
For `O=C(O)CN1C(=O)/C(=C/c2ccc(OCc3ccc(F)cc3F)c(OCc3ccc(F)cc3F)c2)SC1=S`, the IC50 [1] was 5000 nM and the IC50 (Candida albicans) was over 100000 nM.
With `CS(=O)(=O)c1ccc(COc2cc(/C=C3\SC(=S)N(CC(=O)O)C3=O)ccc2OCc2ccccc2)cc1` the IC50 [1] was 20000 nM and the IC50 (Candida albicans) was over 100000 nM.
In the case of `C[C@H](COc1ccc(/C=C2\SC(=S)N(CC(=O)O)C2=O)cc1O[C@@H](c1ccccc1)C(F)(F)F)c1ccccc1`, the IC50 [1] is reported as 3500 nM and the IC50 (Candida albicans) is reported as 550 nM.
Compound `CCCN(CCC)C(=O)C(Oc1cc(/C=C2\SC(=S)N(CC(=O)O)C2=O)ccc1OCCc1ccccc1)c1ccccc1` (centres undefined) has an IC50 [1] of 800 nM and an IC50 (Candida albicans) of 50 nM.
With `CC(Oc1cc(/C=C2\SC(=S)N(CC(=O)O)C2=O)ccc1OCCc1ccccc1)c1ccccc1` (centres undefined) the IC50 [1] was 200 nM and the IC50 (Candida albicans) was 20 nM.
Compound `O=C(O)CN1C(=O)/C(=C/c2ccc(OCc3ccccc3)c(OCc3ccc(C(F)(F)F)cc3)c2)SC1=S` has an IC50 [1] of 11000 nM and an IC50 (Candida albicans) of over 100000 nM.
In the case of `C[C@@H](COc1ccc(/C=C2\SC(=S)N(CC(=O)O)C2=O)cc1O[C@H](c1ccccc1)C(F)(F)F)c1ccccc1`, the IC50 [1] is reported as 400 nM and the IC50 (Candida albicans) is reported as 10 nM.
Compound `O=C(O)CN1C(=O)/C(=C/c2ccc(OCc3ccc(F)cc3F)c(OCc3ccccc3)c2)SC1=S` has an IC50 [1] of 6500 nM and an IC50 (Candida albicans) of 2100 nM.
For `O=C(O)CN1C(=O)/C(=C\c2ccc(OCc3ccccc3)c(OCc3ccc(OC(F)(F)F)cc3)c2)SC1=S`, the IC50 [1] was 2000 nM and the IC50 (Candida albicans) was 500 nM.
With `CC[C@H](COc1ccc(/C=C2\SC(=S)N(CC(=O)O)C2=O)cc1O[C@H](c1ccccc1)C(F)(F)F)c1ccccc1` the IC50 [1] was 500 nM and the IC50 (Candida albicans) was 20 nM.
Compound `Cc1ccc(COc2ccc(/C=C3\SC(=S)N(CC(=O)O)C3=O)cc2OCc2ccccc2)cc1` has an IC50 [1] of 2700 nM and an IC50 (Candida albicans) of 600 nM.
Work on `COc1ccc(COc2ccc(/C=C3\SC(=S)N(CC(=O)O)C3=O)cc2OCc2ccccc2)cc1` yielded an IC50 [1] of 3400 nM and an IC50 (Candida albicans) of 3000 nM.
`O=C(O)CN1C(=O)/C(=C/c2ccc(OCCc3ccc(Cl)cc3)c(OCc3ccccc3)c2)SC1=S` was tested, and the IC50 [1] was 1600 nM and the IC50 (Candida albicans) was 50 nM.
`O=C(O)CN1C(=O)/C(=C/c2ccc(OCc3ccc(C(F)(F)F)cc3)c(OCc3ccccc3)c2)SC1=S` gave an IC50 [1] of 1900 nM and an IC50 (Candida albicans) of 4000 nM.
`O=C(O)CN1C(=O)/C(=C/c2ccc(OCc3ccccc3)c(OCc3cccnc3)c2)SC1=S` showed an IC50 [1] of 43000 nM and an IC50 (Candida albicans) of over 100000 nM.
`O=C(O)CN1C(=O)/C(=C/c2cccc(OCc3ccccc3)c2)SC1=S` gave an IC50 [1] of 50000 nM.
With `O=C(O)CN1C(=O)/C(=C/c2ccc(OCCc3cc(F)cc(F)c3)c(OCc3ccccc3)c2)SC1=S` the IC50 [1] was 850 nM and the IC50 (Candida albicans) was 110 nM.
For `O=C(O)CN1C(=O)/C(=C/c2ccc(OCc3ccc(F)cc3)c(OCc3ccc(F)cc3)c2)SC1=S`, the IC50 [1] was 5000 nM and the IC50 (Candida albicans) was 5200 nM.
Compound `O=C(O)CN1C(=O)/C(=C/c2ccc(OCc3ccccc3)c(OCc3ccc(F)cc3F)c2)SC1=S` has an IC50 [1] of 8500 nM and an IC50 (Candida albicans) of 6000 nM.
`C[C@H](Oc1cc(/C=C2\SC(=S)N(CC(=O)O)C2=O)ccc1OC[C@H](C)c1ccccc1)c1ccccc1` was tested, and the IC50 [1] was 500 nM and the IC50 (Candida albicans) was 2 nM.
Work on `O=C(O)CN1C(=O)/C(=C/c2ccc(OCCc3ccc(OC(F)(F)F)cc3)c(OCc3ccccc3)c2)SC1=S` yielded an IC50 [1] of 1300 nM and an IC50 (Candida albicans) of 200 nM.
Compound `O=C(O)CN1C(=O)/C(=C/c2ccc(OCc3ccccc3)c(OCc3cccc(C(F)(F)F)c3)c2)SC1=S` has an IC50 [1] of 11000 nM and an IC50 (Candida albicans) of over 100000 nM.
Compound `O=C(O)CN1C(=O)/C(=C/c2ccc(OCc3ccccc3)cc2)SC1=S` has an IC50 [1] of 55000 nM and an IC50 (Candida albicans) of 50000 nM.
For `O=C(O)CN1C(=O)/C(=C/c2ccc(OCCc3ccc(F)cc3F)c(OCc3ccccc3)c2)SC1=S`, the IC50 [1] was 4000 nM and the IC50 (Candida albicans) was 50 nM.
For `COc1cccc(COc2ccc(/C=C3\SC(=S)N(CC(=O)O)C3=O)cc2OCc2cccc(OC)c2)c1`, the IC50 [1] was 15000 nM and the IC50 (Candida albicans) was over 100000 nM.
With `O=C(O)CN1C(=O)/C(=C/c2ccc(OCCc3ccccc3)c(OC(C(=O)N3CCOCC3)c3ccccc3)c2)SC1=S` (centres undefined) the IC50 [1] was 1000 nM and the IC50 (Candida albicans) was 43000 nM.
With `C[C@@H](COc1ccc(/C=C2\SC(=S)N(CC(=O)O)C2=O)cc1O[C@@H](c1ccccc1)C(F)(F)F)c1ccccc1` the IC50 [1] was 1800 nM and the IC50 (Candida albicans) was 200 nM.
`O=C(O)CN1C(=O)/C(=C/c2ccc(OCc3ccc(F)c(F)c3)c(OCc3ccccc3)c2)SC1=S` gave an IC50 [1] of 2000 nM and an IC50 (Candida albicans) of 1500 nM.
Compound `CS(=O)(=O)c1ccc(COc2ccc(/C=C3\SC(=S)N(CC(=O)O)C3=O)cc2OCc2ccccc2)cc1` has an IC50 [1] of 3200 nM and an IC50 (Candida albicans) of over 100000 nM.
`O=C(O)CN1C(=O)/C(=C/c2ccc(OCCc3ccccc3)c(OC(CO)c3ccccc3)c2)SC1=S` (centres undefined) showed an IC50 [1] of 170 nM and an IC50 (Candida albicans) of 300 nM.
With `COc1cccc(COc2cc(/C=C3\SC(=S)N(CC(=O)O)C3=O)ccc2OCc2ccccc2)c1` the IC50 [1] was 7500 nM and the IC50 (Candida albicans) was over 100000 nM.
With `CC[C@@H](COc1ccc(/C=C2\SC(=S)N(CC(=O)O)C2=O)cc1O[C@H](c1ccccc1)C(F)(F)F)c1ccccc1` the IC50 [1] was 350 nM and the IC50 (Candida albicans) was 20 nM.
In the case of `C[C@@H](COc1ccc(/C=C2\SC(=S)N(CC(=O)O)C2=O)cc1OCc1ccccc1)c1ccccc1`, the IC50 [1] is reported as 1800 nM and the IC50 (Candida albicans) is reported as 70 nM.
For `O=C(O)CN1C(=O)/C(=C/c2ccc(OCc3ccccc3)c(OCc3ccncc3)c2)SC1=S`, the IC50 [1] was 30000 nM and the IC50 (Candida albicans) was over 100000 nM.
Compound `O=C(O)CN1C(=O)/C(=C/c2ccc(OCc3ccccc3)c(OCc3ccc(Cl)cc3)c2)SC1=S` has an IC50 [1] of 7000 nM.
In the case of `O=C(O)CN1C(=O)/C(=C/c2ccc(OCc3ccc(Cl)cc3)c(OCc3ccccc3)c2)SC1=S`, the IC50 [1] is reported as 950 nM and the IC50 (Candida albicans) is reported as 600 nM.
`O=C(O)CN1C(=O)/C(=C/c2ccc(OCCc3ccc(C(F)(F)F)cc3)c(OCc3ccccc3)c2)SC1=S` showed an IC50 [1] of 4000 nM and an IC50 (Candida albicans) of 180 nM.
With `NC(=O)C(Oc1cc(/C=C2\SC(=S)N(CC(=O)O)C2=O)ccc1OCCc1ccccc1)c1ccccc1` (centres undefined) the IC50 [1] was 350 nM and the IC50 (Candida albicans) was 7000 nM.
`CCC(Oc1cc(/C=C2\SC(=S)N(CC(=O)O)C2=O)ccc1OCCc1ccccc1)c1ccccc1` (centres undefined) showed an IC50 [1] of 950 nM and an IC50 (Candida albicans) of 20 nM.
`C[C@H](COc1ccc(/C=C2\SC(=S)N(CC(=O)O)C2=O)cc1O[C@H](c1ccccc1)C(F)(F)F)c1ccccc1` gave an IC50 [1] of 600 nM and an IC50 (Candida albicans) of 20 nM.
Work on `C[C@H](COc1ccc(/C=C2\SC(=S)N(CC(=O)O)C2=O)cc1OCc1ccccc1)c1ccccc1` yielded an IC50 [1] of 9500 nM and an IC50 (Candida albicans) of 350 nM.
`O=C(O)CN1C(=O)/C(=C/c2ccc(OCCc3ccc(F)cc3)c(OCc3ccccc3)c2)SC1=S` was tested, and the IC50 [1] was 1200 nM and the IC50 (Candida albicans) was 50 nM.
With `O=C(O)CN1C(=O)/C(=C/c2ccc(OCCc3ccccc3)c(OCc3ccccc3)c2)SC1=S` the IC50 [1] was 1500 nM and the IC50 (Candida albicans) was 500 nM.
Work on `CC(C)C(Oc1cc(/C=C2\SC(=S)N(CC(=O)O)C2=O)ccc1OCCc1ccccc1)c1ccccc1` (centres undefined) yielded an IC50 [1] of 700 nM and an IC50 (Candida albicans) of 30 nM.
Work on `C[C@@H](COc1ccc(/C=C2\SC(=S)N(CC(=O)O)C2=O)cc1O[C@H](C)c1ccccc1)c1ccccc1` yielded an IC50 [1] of 1800 nM and an IC50 (Candida albicans) of 30 nM.
`O=C(O)CN1C(=O)/C(=C/c2ccc(OCc3c(F)cccc3F)c(OCc3c(F)cccc3F)c2)SC1=S` gave an IC50 [1] of 20000 nM and an IC50 (Candida albicans) of over 100000 nM.
`O=C(O)CN1C(=O)/C(=C/c2ccc(OCc3cccc(C(F)(F)F)c3)c(OCc3ccccc3)c2)SC1=S` gave an IC50 (Candida albicans) of 650 nM.
`O=C(O)CN1C(=O)/C(=C/c2ccc(OCc3ccccc3)c(OCc3ccc(F)c(F)c3)c2)SC1=S` gave an IC50 [1] of 4200 nM and an IC50 (Candida albicans) of over 100000 nM.
